# Measurements taken from the supplement of paper PMC10307832.
# Compound: C[C@@]1(C(=O)Nc2ccc(F)nc2)CCCN1c1nc(Nc2cc(C3CC3)n[nH]2)c2cccn2n1 + COc1cc2c(Oc3ccc(NC(=O)C4(C(=O)Nc5ccc(F)cc5)CC4)cc3F)ccnc2cc1OCCCN1CCOCC1 [Foretinib] (partner 0.25 µM)
# Assay: relative viability (nuclei count vs DMSO), 5 days (fraction); higher = more cells survive
# Conditions: first compound 1.265 µM
# In short: (§1)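 Dosing by pin tool came one day after lung cancer cell lines were seeded in 1536-well plates, using either one drug or a fixed anchor-drug dose plus five library-drug doses (not always all listed) in √10 steps. After 5 days, nuclei were counted on 4× images. Relative viability is treated-well nuclei count divided by vehicle-well nuclei count, and values are medians of duplicate plates.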
row,Cell Line,relative viability
1,NCI-H2085,0.675
2,Calu-6,0.414
3,HCC-366,1.07
4,NCI-H1666,0.784
5,NCI-H596,0.972
6,LK-2,0.979
7,NCI-H2087,0.72
8,SK-MES-1,0.948
9,H3255,0.787
10,COR-L23,0.695
11,COR-L 105,1.01
12,IA-LM,1.13
13,LOU-NH91,0.948
14,ChaGo-K-1,0.888
15,NCI-H2170,1.08
16,NCI-H2405,0.77
17,HOP-62,1.16
18,A549,0.272
19,LU99A,0.432
20,BEN,0.536
21,HARA,1.01
22,SW 900,0.816
23,NCI-H661,0.936
24,NCI-H1299,1.05
25,NCI-H1563,0.83
26,ABC-1,0.38
27,NCI-H358,0.183
28,NCI-H650,0.782

# Compound: C[C@@]1(C(=O)Nc2ccc(F)nc2)CCCN1c1nc(Nc2cc(C3CC3)n[nH]2)c2cccn2n1 + Nc1nc2[nH]cc(CCc3ccc(C(=O)N[C@@H](CCC(=O)O)C(=O)O)cc3)c2c(=O)[nH]1 [Pemetrexed] (partner 0.2 µM)
# Assay: as above
# Conditions: first compound 0.04 µM
# In short: as §1
row,Cell Line,relative viability
1,NCI-H2342,0.819
2,NCI-H1650,0.38
3,NCI-H1993,0.496
4,SW 1573,0.847
5,NCI-H838,0.234
6,LCLC-103H,0.49
7,NCI-H520,0.661
8,NCI-H2126,0.622
9,EMC-BAC-2,0.454
10,NCI-H2085,0.959
11,HCC-366,0.21
12,NCI-H1666,0.797
13,NCI-H596,0.494
14,LK-2,0.175
15,NCI-H2087,0.669
16,NCI-H1648,0.661
17,SK-MES-1,0.948
18,H3255,0.602

row,Cell Line,relative viability
1,COR-L23,0.203
2,COR-L 105,1.07
3,LOU-NH91,0.394
4,ChaGo-K-1,0.252
5,NCI-H2170,0.278
6,NCI-H2405,0.8
7,HOP-62,0.294
8,HCC-44,0.688
9,NCI-H522,0.832
10,LU99A,0.187
11,BEN,0.919
12,HARA,0.222
13,SW 900,0.439
14,NCI-H661,0.918
15,NCI-H1792,0.641
16,NCI-H1563,0.92
17,NCI-H358,0.15
18,NCI-H650,0.837

# Same assay, conditions: first compound 0.1265 µM
row,Cell Line,relative viability
1,NCI-H2342,0.725
2,NCI-H1650,0.29
3,NCI-H1993,0.488
4,SW 1573,0.749
5,NCI-H838,0.233
6,LCLC-103H,0.509
7,NCI-H520,0.529
8,NCI-H2126,0.463
9,EMC-BAC-2,0.42
10,NCI-H2085,0.844
11,HCC-366,0.245
12,NCI-H1666,0.735
13,NCI-H596,0.497
14,LK-2,0.195
15,NCI-H2087,0.696
16,NCI-H1648,0.606
17,SK-MES-1,0.93
18,H3255,0.523

row,Cell Line,relative viability
1,COR-L23,0.198
2,COR-L 105,0.658
3,LOU-NH91,0.409
4,ChaGo-K-1,0.253
5,NCI-H2170,0.236
6,NCI-H2405,0.905
7,HOP-62,0.297
8,HCC-44,0.6
9,NCI-H522,1.25
10,LU99A,0.165
11,BEN,0.65
12,HARA,0.241
13,SW 900,0.492
14,NCI-H661,0.909
15,NCI-H1792,0.333
16,NCI-H1563,0.708
17,NCI-H358,0.155
18,NCI-H650,0.706

# Same assay, conditions: first compound 0.4 µM
row,Cell Line,relative viability
1,NCI-H2342,0.579
2,NCI-H1650,0.334
3,NCI-H1993,0.462
4,SW 1573,0.803
5,NCI-H838,0.216
6,LCLC-103H,0.44
7,NCI-H520,0.581
8,NCI-H2126,0.379
9,EMC-BAC-2,0.471
10,NCI-H2085,0.887
11,HCC-366,0.212
12,NCI-H1666,0.714
13,NCI-H596,0.431
14,NCI-H2087,0.639
15,NCI-H1648,0.624
16,SK-MES-1,0.838
17,H3255,0.528
18,COR-L23,0.173

row,Cell Line,relative viability
1,COR-L 105,0.865
2,LOU-NH91,0.353
3,ChaGo-K-1,0.273
4,NCI-H2170,0.267
5,NCI-H2405,0.819
6,HOP-62,0.315
7,HCC-44,0.627
8,NCI-H522,0.706
9,LU99A,0.183
10,BEN,0.616
11,HARA,0.227
12,SW 900,0.476
13,NCI-H661,0.796
14,NCI-H1792,0.303
15,NCI-H1563,0.73
16,NCI-H358,0.117
17,NCI-H650,0.745

# Same assay, conditions: first compound 1.265 µM
row,Cell Line,relative viability
1,NCI-H2342,0.664
2,NCI-H1650,0.319
3,NCI-H1993,0.474
4,SW 1573,0.244
5,NCI-H838,0.215
6,LCLC-103H,0.41
7,NCI-H520,0.615
8,NCI-H2126,0.465
9,EMC-BAC-2,0.439
10,NCI-H2085,0.877
11,HCC-366,0.163
12,NCI-H1666,0.683
13,NCI-H596,0.487
14,LK-2,0.156
15,NCI-H2087,0.668
16,NCI-H1648,0.637
17,SK-MES-1,0.796
18,H3255,0.484

row,Cell Line,relative viability
1,COR-L23,0.183
2,COR-L 105,1.1
3,LOU-NH91,0.346
4,ChaGo-K-1,0.258
5,NCI-H2170,0.251
6,NCI-H2405,0.614
7,HOP-62,0.341
8,HCC-44,0.618
9,NCI-H522,0.933
10,LU99A,0.165
11,BEN,0.653
12,HARA,0.228
13,SW 900,0.467
14,NCI-H661,0.899
15,NCI-H1792,0.27
16,NCI-H1563,0.662
17,NCI-H358,0.137
18,NCI-H650,0.692

# Compound: C[C@@]1(C(=O)Nc2ccc(F)nc2)CCCN1c1nc(Nc2cc(C3CC3)n[nH]2)c2cccn2n1 + CC1(C)CCC(c2ccc(Cl)cc2)=C(CN2CCN(c3ccc(C(=O)NS(=O)(=O)c4ccc(N[C@H](CCN5CCOCC5)CSc5ccccc5)c(S(=O)(=O)C(F)(F)F)c4)cc3)CC2)C1 [Navitoclax] (partner 0.5 µM)
# Assay: as above
# Conditions: first compound 0.04 µM
# In short: as §1
row,Cell Line,relative viability
1,NCI-H727,0.175
2,NCI-H1650,0.955
3,EBC-1,0.342
4,NCI-H1703,1.25
5,NCI-H1993,0.692
6,SW 1573,0.875
7,NCI-H838,1.21
8,NCI-H520,1.16
9,NCI-H2126,0.669
10,EMC-BAC-2,1.13
11,NCI-H2085,1.22
12,Calu-6,0.83
13,HCC-366,1.12
14,NCI-H1666,0.823
15,NCI-H596,1.01
16,NCI-H2087,0.882
17,SK-MES-1,1.3

row,Cell Line,relative viability
1,H3255,0.684
2,COR-L23,1.02
3,COR-L 105,0.788
4,IA-LM,0.983
5,LOU-NH91,0.706
6,ChaGo-K-1,0.917
7,NCI-H2170,0.514
8,NCI-H2405,0.813
9,HOP-62,1.12
10,HCC-44,0.804
11,A549,0.95
12,LU99A,0.652
13,BEN,0.0599
14,HARA,1.16
15,NCI-H1299,1.08
16,NCI-H1792,0.422

# Same assay, conditions: first compound 0.1265 µM
row,Cell Line,relative viability
1,NCI-H727,0.185
2,NCI-H1650,1.14
3,EBC-1,0.315
4,NCI-H1703,1.02
5,SW 1573,0.471
6,NCI-H838,1.01
7,NCI-H520,0.988
8,NCI-H2126,0.725
9,EMC-BAC-2,1.12
10,NCI-H2085,1.07
11,Calu-6,0.637
12,HCC-366,0.966
13,NCI-H1666,0.777
14,NCI-H596,0.809
15,LK-2,0.843
16,NCI-H2087,0.969
17,SK-MES-1,0.995

row,Cell Line,relative viability
1,H3255,0.463
2,COR-L23,1.06
3,COR-L 105,0.477
4,IA-LM,0.904
5,LOU-NH91,0.77
6,ChaGo-K-1,0.616
7,NCI-H2170,0.652
8,NCI-H2405,0.635
9,HOP-62,0.887
10,HCC-44,0.884
11,A549,0.902
12,LU99A,0.71
13,BEN,0.0547
14,HARA,1.18
15,NCI-H1299,0.976
16,NCI-H1792,0.36

# Same assay, conditions: first compound 0.4 µM
row,Cell Line,relative viability
1,NCI-H727,0.106
2,NCI-H1650,0.955
3,EBC-1,0.315
4,NCI-H1703,0.783
5,NCI-H1993,0.671
6,SW 1573,0.655
7,NCI-H838,0.948
8,NCI-H520,1.04
9,NCI-H2126,0.591
10,EMC-BAC-2,0.947
11,NCI-H2085,0.984
12,Calu-6,0.62
13,HCC-366,0.688
14,NCI-H1666,0.578
15,NCI-H596,0.921
16,LK-2,0.368
17,NCI-H2087,0.854

row,Cell Line,relative viability
1,H3255,0.49
2,COR-L23,0.821
3,COR-L 105,0.65
4,IA-LM,0.746
5,LOU-NH91,0.61
6,ChaGo-K-1,1.06
7,NCI-H2170,0.518
8,NCI-H2405,0.584
9,HOP-62,0.826
10,HCC-44,0.68
11,A549,0.742
12,LU99A,0.491
13,BEN,0.0804
14,HARA,1.17
15,NCI-H1299,1.04
16,NCI-H1792,0.464

# Same assay, conditions: first compound 1.265 µM
row,Cell Line,relative viability
1,NCI-H727,0.14
2,NCI-H1650,1.08
3,EBC-1,0.197
4,NCI-H1703,0.743
5,NCI-H1993,0.716
6,SW 1573,0.8
7,NCI-H838,1.1
8,NCI-H520,1.11
9,NCI-H2126,0.761
10,EMC-BAC-2,1.22
11,NCI-H2085,1.05
12,Calu-6,0.141
13,HCC-366,1.19
14,NCI-H1666,0.581
15,NCI-H596,1.09
16,LK-2,0.494
17,NCI-H2087,0.931

row,Cell Line,relative viability
1,SK-MES-1,1.1
2,H3255,0.36
3,COR-L23,0.681
4,COR-L 105,0.607
5,IA-LM,0.593
6,LOU-NH91,0.686
7,ChaGo-K-1,0.673
8,NCI-H2170,0.652
9,NCI-H2405,0.597
10,HOP-62,1.03
11,HCC-44,0.903
12,A549,0.688
13,LU99A,0.574
14,BEN,0.0539
15,HARA,1.16
16,NCI-H1299,1.02
17,NCI-H1792,0.393
